Where a chain is given by its changes, count along the chain named.
Tests used:
Conditions in all cases: at 10 µM
[1] = test system: T1, Receptor-type tyrosine-protein kinase FLT3 (Homo sapiens), P36888 [K663Q]; test: (§1) Selectivity interaction (KinomeScan (DiscoverX)) EUB0000595a FLT3
T1 sequence (whole entry): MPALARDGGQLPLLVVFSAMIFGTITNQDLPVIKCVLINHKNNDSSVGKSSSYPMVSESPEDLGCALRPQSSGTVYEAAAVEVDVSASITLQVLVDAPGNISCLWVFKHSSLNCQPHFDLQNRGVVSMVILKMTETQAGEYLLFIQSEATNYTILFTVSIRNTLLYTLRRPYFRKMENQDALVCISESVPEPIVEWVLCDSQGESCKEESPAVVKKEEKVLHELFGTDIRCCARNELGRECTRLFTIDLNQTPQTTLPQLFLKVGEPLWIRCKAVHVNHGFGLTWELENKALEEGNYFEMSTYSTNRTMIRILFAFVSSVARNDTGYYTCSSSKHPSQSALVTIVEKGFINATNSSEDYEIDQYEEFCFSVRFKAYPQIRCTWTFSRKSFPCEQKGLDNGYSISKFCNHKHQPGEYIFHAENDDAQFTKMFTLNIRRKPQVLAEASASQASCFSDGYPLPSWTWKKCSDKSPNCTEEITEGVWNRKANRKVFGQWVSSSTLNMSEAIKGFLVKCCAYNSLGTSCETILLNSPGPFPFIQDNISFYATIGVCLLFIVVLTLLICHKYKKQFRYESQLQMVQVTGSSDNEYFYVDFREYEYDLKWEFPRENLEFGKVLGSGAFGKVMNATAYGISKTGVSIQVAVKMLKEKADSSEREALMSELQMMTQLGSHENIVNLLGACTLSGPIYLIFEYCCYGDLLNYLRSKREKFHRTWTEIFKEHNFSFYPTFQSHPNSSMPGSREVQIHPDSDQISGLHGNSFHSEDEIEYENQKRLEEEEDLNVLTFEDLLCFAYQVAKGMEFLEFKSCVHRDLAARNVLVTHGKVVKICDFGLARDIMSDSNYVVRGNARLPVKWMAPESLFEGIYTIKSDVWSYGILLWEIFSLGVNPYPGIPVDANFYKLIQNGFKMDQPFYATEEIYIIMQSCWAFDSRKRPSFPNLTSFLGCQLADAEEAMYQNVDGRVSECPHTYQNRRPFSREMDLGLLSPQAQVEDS

[2] = biological target: Receptor-type tyrosine-protein kinase FLT3 (Homo sapiens) (UniProt P36888); test: as §1
[3] = test system: T2, Receptor-type tyrosine-protein kinase FLT3 (Homo sapiens), P36888 [N841I]; test: as §1
T2 sequence (whole entry): T1 sequence (whole entry) with Q663K, N841I

[4] = test system: Receptor-type tyrosine-protein kinase FLT3 (Homo sapiens), P36888 [UNDEFINED MUTATION]; test: as §1
[5] = test system: T3, Receptor-type tyrosine-protein kinase FLT3 (Homo sapiens), P36888 [R834Q]; test: as §1
T3 sequence (whole entry): T1 sequence (whole entry) with Q663K, R834Q

Compound: COCC(=O)NC/C=C/c1ccc2ncnc(Nc3ccc(Oc4ccc(C)nc4)c(C)c3)c2c1 [CP-724714]
- % of control [1]: 79%
- % of control [2]: 100%
- % of control [3]: 79%
- % of control [4]: 87%
- % of control [5]: 100%
